These results are taken from paper PMC8625360 (Cells, 2021).

Where a chain is given by its changes, count along the chain named. Names may count otherwise. Peptide text beside a SMILES is read from it. * marks the point of attachment. 5FAM = O=C1OC2(c3ccc(O)cc3Oc3cc(O)ccc32)c2ccc(C(=O)*)cc21

The test system of one assay is HepG2 WT cells. Description: Colocalization of EGFP-ATP7B-WT with TGN, lysosome (LAMP1) and LC3B markers. In kind it is cell-based, human. Conditions: 200 µM BCS, 24 h. As to the method:
For the detection of the effect of copper on autophagosome-lysosome fusion, 50,000 cells of each HepG2 WT and HepG2 ATP7B^−/− were grown on laminin-coated coverslips for 24 h, transduced with BacMam-GFP-RFP-LC3B overnight according to the manufacturer’s recommendations. The cells were then treated with CuSO4 at a concentration range from 100 µM to 800 µM for 24 h, fixed with 4% paraformaldehyde for 15 min and finally stained with 250 ng/mL DAPI (Thermo Fisher scientific, Molecular Probes, D1306) for 5 min. The coverslips were fixed on a glass slide using Mowiol 4–88 (Sigma Aldrich, 81381). The fluorescence cell imaging was acquired using a confocal Zeiss LSM 780 microscope with a 63 × 1.40 Oil DIC M27. […] Red and yellow puncta count per cell was done using the particle analysis in image J. For protein ATP7B trafficking analysis, 50,000 cells of HepG2 WT and HepG2 ATP7B^−/− were cultured in a 500 µL cell culture medium on a laminin-coated coverslip for 24 h, then transfected with EGFP-ATP7B. After 6 h post transfection, cells were transduced with BacMam-RFP-Golgi or the BacMam-RFP-Lysosome overnight, then treated with various concentrations of CuSO4 or 200 µM of bathocuproine disulfonate (BCS) for 24 h or EBSS for 2 h, respectively. To detect LC3B or endogenous ATP7B, the fixed cells were incubated with anti-LC3B or anti-ATP7B antibodies at 4 °C overnight followed by secondary antibody incubation, Alexa Fluor 568 goat anti-rabbit, at temperature for 1 h in the dark. Pearson’s correlation coefficient was analyzed per cell using the colocalization threshold of ImageJ Fiji.

The target in assay [1] is T1, LC3B (Homo sapiens, UniProt Q9GZQ8).
T1 construct: His6 (N, cleaved yes); MBP (N, cleaved yes); made in house; host or cells: E. coli BL21-codonplus (DE3)-RIL
The experiment in a line: Fluorescence polarization binding of CF-labelled LIR peptides to purified LC3B. Conditions: CF-labelled peptide 2.5 µM (25 µL) + LC3B 0.2–330 µM (25 µL), HEPES buffer 50 mM pH 7.2, 50 mM NaCl, 2 mM DTE, one site-specific binding fit, three independent replications, read-out: Kd (dissociation constant) for LC3B. As to the method: Binding experiments were done in a black 384-microwell plate. […] Each CF-labelled peptide in a volume of 25 µL at a concentration of 2.5 µM was combined with 25 µL of LC3B at a concentration range from 0.2–330 µM. The fluorescent polarization was measured with the excitation and emission wavelengths of […], respectively. The obtained polarization data were corrected by subtraction of the peptide alone (blank). The dissociation constant (Kd) was quantified using a nonlinear curve fitting the site-specific binding on GraphPad Prism 5.0 for Windows (GraphPad Software, La Jolla, CA, USA). Experiments were performed in three independent replications.

In assay [2] the target is T1, LC3B. Description: Pull-down with resin-bound GST-LC3B as bait from transfected HEK293H cell lysate. In kind it is binding. Conditions: 500 µg HEK293H lysate, western blot, repeated two times. As for the experimental part: GST tagged LC3B was used as a bait to trap the full-length ATP7B from a lysate obtained from ATP7B transfected human embryonic kidney 293 H cell line (HEK293H) cells. To this end, 100,000 cells of HEK293H were cultured in 1 mL of DMEM media (Thermo Fisher Scientific, 31966-047) plus 10% fetal bovine serum (FBS) (Fisher Scientific, 10309433) and 1% Penicillin-Streptomycin (P/S) (Thermo Fisher Scientific, 15140122). Once the cells reached 80% confluence, cells were transfected with pIRES-GFP carrying full-length ATP7B (NM_000053.4) or its W1452A/L1455A mutant using Lipofectamine LTX and plus reagent (Invitrogen, 15338100). […] Blots were imaged on an Infrared fluorescence imaging system using Li-Cor 9120 Odyssey (LI-COR Biosciences, Bad Homburg, Germany). Protein band intensity quantification was done using ImageJ (National Institutes of Health, Bethesda, MD, USA).
In general terms: A western blot detects proteins with antibodies after separation by electrophoresis.

Regarding `Cc1cc(-c2ccc(S(=O)(=O)O)cc2)c2ccc3c(-c4ccc(S(=O)(=O)O)cc4)cc(C)nc3c2n1` [BCS, bathocuproine disulfonate], the “fold elevation of ATP7B fraction in the TGN vs basal medium condition” value with HepG2 WT cells is “about 12.6 fold”. In the assay with HepG2 WT cells (from mean Pearson's correlation coefficient, 30 cells), the “ATP7B fraction in the TGN” value is 32.8%.
By Kd is commonly meant the equilibrium constant for the complex coming apart. Regarding `CSCC[C@H](NC(=O)c1ccc2c(c1)C(=O)OC21c2ccc(O)cc2Oc2cc(O)ccc21)C(=O)N[C@@H](CCCCN)C(=O)N[C@@H](CCCCN)C(=O)N[C@@H](CO)C(=O)N[C@@H](Cc1ccccc1)C(=O)N[C@@H](C)C(=O)N[C@@H](Cc1ccccc1)C(=O)N[C@@H](CC(=O)O)C(=O)N[C@@H](CC(N)=O)C(=O)N[C@H](C(=O)NCC(=O)N[C@@H](Cc1ccc(O)cc1)C(=O)N[C@@H](CCC(=O)O)C(=O)NCC(=O)NCC(=O)N[C@@H](CC(C)C)C(=O)N[C@@H](CC(=O)O)C(N)=O)C(C)C` [LIR1] (5FAM-MKKSFAFDNVGYEGGLD-NH2), the Kd on LC3B [1] was above 250 µM.
On the same count and under the same terms, with `CC(C)[C@H](NC(=O)[C@H](Cc1ccc(O)cc1)NC(=O)[C@H](CO)NC(=O)[C@@H](NC(=O)[C@H](CCC(N)=O)NC(=O)[C@H](CC(=O)O)NC(=O)[C@H](Cc1c[nH]c2ccccc12)NC(=O)[C@@H]1CCCN1C(=O)[C@@H](NC(=O)[C@H](C)NC(=O)[C@H](CCCNC(=N)N)NC(=O)[C@@H]1CCCN1C(=O)[C@H](CO)NC(=O)[C@H](CC(=O)O)NC(=O)c1ccc2c(c1)C(=O)OC21c2ccc(O)cc2Oc2cc(O)ccc21)[C@@H](C)O)C(C)C)C(=O)N[C@@H](CO)C(=O)N[C@@H](CCC(N)=O)C(N)=O` [LIR2] (5FAM-DSPRATPWDQVSYVSQ-NH2) the figure was above 250 µM; with `CC(C)C[C@H](NC(=O)[C@H](C)NC(=O)[C@H](CC(C)C)NC(=O)[C@H](CO)NC(=O)[C@H](C)NC(=O)[C@H](CCCCN)NC(=O)[C@H](CC(=O)O)NC(=O)CNC(=O)[C@H](CC(=O)O)NC(=O)[C@H](CC(=O)O)NC(=O)[C@H](CC(=O)O)NC(=O)[C@H](C)NC(=O)c1ccc2c(c1)C(=O)OC21c2ccc(O)cc2Oc2cc(O)ccc21)C(=O)N[C@@H](CC(N)=O)C(=O)NCC(=O)N[C@@H](CCCNC(=N)N)C(=O)N[C@@H](CC(=O)O)C(N)=O` [LIR3^W1452A,L1455A] (5FAM-ADDDGDKASLALNGRD-NH2), above 250 µM; with `CC(C)C[C@H](NC(=O)[C@H](CO)NC(=O)[C@H](C)NC(=O)[C@H](CCCCN)NC(=O)[C@H](CC(=O)O)NC(=O)CNC(=O)[C@H](CC(=O)O)NC(=O)[C@H](CC(=O)O)NC(=O)[C@H](CC(=O)O)NC(=O)[C@H](C)NC(=O)c1ccc2c(c1)C(=O)OC21c2ccc(O)cc2Oc2cc(O)ccc21)C(=O)N[C@@H](CC(C)C)C(=O)N[C@@H](CC(C)C)C(=O)N[C@@H](CC(N)=O)C(=O)NCC(=O)N[C@@H](CCCNC(=N)N)C(=O)N[C@@H](CC(=O)O)C(N)=O` [LIR3^W1452A] (5FAM-ADDDGDKASLLLNGRD-NH2), above 250 µM.

B1: wild-type ATP7B: full-length recombinant copper-transporting ATPase ATP7B from transfected HEK293H cell lysate (protein)
chain: MPEQERQITAREGASRKILSKLSLPTRAWEPAMKKSFAFDNVGYEGGLDGLGPSSQVATSTVRILGMTCQSCVKSIEDRISNLKGIISMKVSLEQGSATVKYVPSVVCLQQVCHQIGDMGFEASIAEGKAASWPSRSLPAQEAVVKLRVEGMTCQSCVSSIEGKVRKLQGVVRVKVSLSNQEAVITYQPYLIQPEDLRDHVNDMGFEAAIKSKVAPLSLGPIDIERLQSTNPKRPLSSANQNFNNSETLGHQGSHVVTLQLRIDGMHCKSCVLNIEENIGQLLGVQSIQVSLENKTAQVKYDPSCTSPVALQRAIEALPPGNFKVSLPDGAEGSGTDHRSSSSHSPGSPPRNQVQGTCSTTLIAIAGMTCASCVHSIEGMISQLEGVQQISVSLAEGTATVLYNPSVISPEELRAAIEDMGFEASVVSESCSTNPLGNHSAGNSMVQTTDGTPTSVQEVAPHTGRLPANHAPDILAKSPQSTRAVAPQKCFLQIKGMTCASCVSNIERNLQKEAGVLSVLVALMAGKAEIKYDPEVIQPLEIAQFIQDLGFEAAVMEDYAGSDGNIELTITGMTCASCVHNIESKLTRTNGITYASVALATSKALVKFDPEIIGPRDIIKIIEEIGFHASLAQRNPNAHHLDHKMEIKQWKKSFLCSLVFGIPVMALMIYMLIPSNEPHQSMVLDHNIIPGLSILNLIFFILCTFVQLLGGWYFYVQAYKSLRHRSANMDVLIVLATSIAYVYSLVILVVAVAEKAERSPVTFFDTPPMLFVFIALGRWLEHLAKSKTSEALAKLMSLQATEATVVTLGEDNLIIREEQVPMELVQRGDIVKVVPGGKFPVDGKVLEGNTMADESLITGEAMPVTKKPGSTVIAGSINAHGSVLIKATHVGNDTTLAQIVKLVEEAQMSKAPIQQLADRFSGYFVPFIIIMSTLTLVVWIVIGFIDFGVVQRYFPNPNKHISQTEVIIRFAFQTSITVLCIACPCSLGLATPTAVMVGTGVAAQNGILIKGGKPLEMAHKIKTVMFDKTGTITHGVPRVMRVLLLGDVATLPLRKVLAVVGTAEASSEHPLGVAVTKYCKEELGTETLGYCTDFQAVPGCGIGCKVSNVEGILAHSERPLSAPASHLNEAGSLPAEKDAVPQTFSVLIGNREWLRRNGLTISSDVSDAMTDHEMKGQTAILVAIDGVLCGMIAIADAVKQEAALAVHTLQSMGVDVVLITGDNRKTARAIATQVGINKVFAEVLPSHKVAKVQELQNKGKKVAMVGDGVNDSPALAQADMGVAIGTGTDVAIEAADVVLIRNDLLDVVASIHLSKRTVRRIRINLVLALIYNLVGIPIAAGVFMPIGIVLQPWMGSAAMAASSVSVVLSSLQLKCYKKPDLERYEAQAHGHMKPLTASQVSVHIGMDDRWRDSPRATPWDQVSYVSQVSLSSLTSDKPSRHSAAADDDGDKWSLLLNGRDEEQYI
Regarding B1, the “ATP7B in elution fraction of GST-LC3B pull-down” value with LC3B [2] is recorded as “detected in the elution fraction”.

B2: ATP7B^W1452A/L1455A: full-length ATP7B variant W1452A/L1455A with mutated LIR3 motif (protein)
chain: B1 chain with W1452A, L1455A
With B2, the “ATP7B in elution fraction of GST-LC3B pull-down” value in the assay with LC3B [2] is “largely reduced”.
